# Data from patent US9926281B2 (priority 2014, dated 2018).
# Read-outs that look alike come from different tables or passages of the source.
# Columns and labels:
# rnADAMTS-5 (1-564-6H) = rnADAMTS-5 (1-564-6H) (Rattus norvegicus, UniProt Q6TY19); details: read-out: Rat ADAMTS-5 potency IC50
# human ADAMTS-5 [1] = target: T1, human ADAMTS-5 (Homo sapiens (Human), UniProt Q9UNA0); details: read-out: hADAMTS-5 potency IC50
# human TACE = human TACE (Homo sapiens (Human), UniProt P78536); details: read-out: TACE potency IC50
# human MMP13 = human MMP13 (Homo sapiens (Human), UniProt P45452); details: read-out: hMMP-13 potency IC50
# Method: Human MMP13 is preactivated by incubated the enzyme in the same buffer complemented with 1 mM freshly prepared p-Aminophenylmercuric acetate (AMPA) for 1 hour at 37° C.
# human ADAMTS-5 [2] = target: T1, human ADAMTS-5; details: read-out: hADAMTS-5 potency IC50; remark: listed apart in the source
# Method: Finally, the fluorescence is read on the Envision (Perkin Elmer) after an incubation of 90 min at 37° C.
# Sequence of human TACE (P78536 whole entry, looked up, change not shown): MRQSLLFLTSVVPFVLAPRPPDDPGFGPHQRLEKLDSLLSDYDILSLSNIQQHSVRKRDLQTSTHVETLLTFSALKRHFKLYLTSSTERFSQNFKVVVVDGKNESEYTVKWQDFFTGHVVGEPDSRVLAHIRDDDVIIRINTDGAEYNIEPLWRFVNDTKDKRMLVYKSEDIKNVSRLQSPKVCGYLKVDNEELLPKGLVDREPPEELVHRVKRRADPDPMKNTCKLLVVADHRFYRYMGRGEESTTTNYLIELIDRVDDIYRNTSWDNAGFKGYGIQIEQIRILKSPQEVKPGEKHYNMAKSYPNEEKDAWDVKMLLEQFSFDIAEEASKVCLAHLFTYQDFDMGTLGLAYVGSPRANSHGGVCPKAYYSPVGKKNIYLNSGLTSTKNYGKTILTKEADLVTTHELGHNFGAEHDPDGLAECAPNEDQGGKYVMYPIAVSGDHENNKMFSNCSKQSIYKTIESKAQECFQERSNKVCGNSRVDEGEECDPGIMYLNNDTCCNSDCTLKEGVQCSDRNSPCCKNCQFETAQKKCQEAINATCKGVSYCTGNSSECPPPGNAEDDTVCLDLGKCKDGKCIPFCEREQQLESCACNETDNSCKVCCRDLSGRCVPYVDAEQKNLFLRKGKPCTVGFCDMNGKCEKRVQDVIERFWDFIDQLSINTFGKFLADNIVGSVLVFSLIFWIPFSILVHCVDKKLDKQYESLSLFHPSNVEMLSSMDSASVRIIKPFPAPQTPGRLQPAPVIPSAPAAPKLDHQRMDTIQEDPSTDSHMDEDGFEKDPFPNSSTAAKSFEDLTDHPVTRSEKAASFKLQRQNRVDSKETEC
# T1 sequence (Q9UNA0 262-930): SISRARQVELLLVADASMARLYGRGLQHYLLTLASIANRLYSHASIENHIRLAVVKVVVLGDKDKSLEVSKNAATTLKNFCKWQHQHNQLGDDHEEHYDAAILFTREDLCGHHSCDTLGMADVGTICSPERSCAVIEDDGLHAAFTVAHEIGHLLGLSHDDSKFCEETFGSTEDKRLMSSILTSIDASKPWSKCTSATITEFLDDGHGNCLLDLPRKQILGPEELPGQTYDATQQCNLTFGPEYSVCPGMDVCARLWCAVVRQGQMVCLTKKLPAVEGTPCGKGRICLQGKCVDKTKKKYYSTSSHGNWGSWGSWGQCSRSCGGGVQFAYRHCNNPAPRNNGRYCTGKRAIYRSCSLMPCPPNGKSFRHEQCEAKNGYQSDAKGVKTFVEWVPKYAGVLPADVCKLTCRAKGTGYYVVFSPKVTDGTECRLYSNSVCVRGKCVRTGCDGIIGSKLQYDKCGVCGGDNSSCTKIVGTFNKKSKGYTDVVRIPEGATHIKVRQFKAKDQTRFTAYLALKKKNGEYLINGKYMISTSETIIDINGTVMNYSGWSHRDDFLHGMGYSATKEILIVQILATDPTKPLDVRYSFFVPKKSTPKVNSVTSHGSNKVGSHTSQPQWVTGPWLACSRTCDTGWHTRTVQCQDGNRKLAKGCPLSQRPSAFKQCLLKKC
compound,measurement,setting,value
"O=C1NC(=O)C(CCC(=O)N2CCN(c3ccc(Cl)cc3)CC2)(c2ccccc2)N1 (stereo not shown) [compound 5, 5-[3-[4-(4-chlorophenyl)piperazin-1-yl]-3-oxo-propyl]-5-phenyl-imidazolidine-2,4-dione]",IC50,rnADAMTS-5 (1-564-6H),101 nM
same,IC50,human ADAMTS-5 [1],78 nM
same,IC50,human TACE,> 3330 nM
"Cc1cc(Cl)ccc1N1CCN(C(=O)CCC2(C)NC(=O)NC2=O)CC1 (stereo not shown) [compound 17, 5-[3-[4-(4-chloro-2-methyl-phenyl)piperazin-1-yl]-3-oxo-propyl]-5-methyl-imidazolidine-2,4-dione]",IC50,rnADAMTS-5 (1-564-6H),> 3940 nM
same,IC50,human ADAMTS-5 [1],2840 nM
same,IC50,human TACE,> 4000 nM
same,IC50,human MMP13,> 20000 nM
"CC1(CCC(=O)N2CCN(c3ccccc3Cl)CC2)NC(=O)NC1=O (stereo not shown) [compound 19, 5-[3-[4-(2-chlorophenyl)piperazin-1-yl]-3-oxo-propyl]-5-methyl-imidazolidine-2,4-dione]",IC50,rnADAMTS-5 (1-564-6H),> 4000 nM
same,IC50,human ADAMTS-5 [1],> 4000 nM
same,IC50,human ADAMTS-5 [2],> 4000 nM
"Cc1cc(N2CCN(C(=O)CCC3(c4ccccc4)NC(=O)NC3=O)CC2)ccc1[N+](=O)[O-] (stereo not shown) [compound 23, 5-[3-[4-(3-methyl-4-nitro-phenyl)piperazin-1-yl]-3-oxo-propyl]-5-phenyl-imidazolidine-2,4-dione]",IC50,rnADAMTS-5 (1-564-6H),158 nM
same,IC50,human ADAMTS-5 [1],157 nM
"Cc1ccc(Cl)cc1N1CCN(C(=O)CCC2(c3ccccc3)NC(=O)NC2=O)CC1 (stereo not shown) [compound 24, 5-[3-[4-(5-chloro-2-methyl-phenyl)piperazin-1-yl]-3-oxo-propyl]-5-phenyl-imidazolidine-2,4-dione]",IC50,rnADAMTS-5 (1-564-6H),132 nM
same,IC50,human ADAMTS-5 [1],93 nM
same,IC50,human TACE,298 nM
"Cc1ccc(Cl)cc1N1CCN(C(=O)CCC2(C(C)C)NC(=O)NC2=O)CC1 (stereo not shown) [compound 33, 5-[3-[4-(5-chloro-2-methyl-phenyl)piperazin-1-yl]-3-oxo-propyl]-5-isopropyl-imidazolidine-2,4-dione]",IC50,rnADAMTS-5 (1-564-6H),178 nM
same,IC50,human ADAMTS-5 [1],134 nM
same,IC50,human TACE,429 nM
"Cc1ccccc1N1CCN(C(=O)CCC2(C3CC3)NC(=O)NC2=O)CC1 (stereo not shown) [compound 35, 5-cyclopropyl-5-[3-[4-(o-tolyl)piperazin-1-yl]-3-oxo-propyl]imidazolidine-2,4-dione]",IC50,rnADAMTS-5 (1-564-6H),103 nM
same,IC50,human ADAMTS-5 [1],99 nM
same,IC50,human TACE,> 4000 nM
same,IC50,human MMP13,> 20000 nM
"Cc1ccc(Cl)cc1N1CCN(C(=O)CCC2(c3cccnc3)NC(=O)NC2=O)CC1 (stereo not shown) [compound 46, 5-[3-[4-(5-chloro-2-methyl-phenyl)piperazin-1-yl]-3-oxo-propyl]-5-(3-pyridyl)imidazolidine-2,4-dione]",IC50,rnADAMTS-5 (1-564-6H),42 nM
same,IC50,human ADAMTS-5 [1],35 nM
same,IC50,human TACE,137 nM
"CC1(CCC(=O)N2CCN(c3ccc(Cl)c(F)c3)CC2)NC(=O)NC1=O (stereo not shown) [compound 49, 5-[3-[4-(4-chloro-3-fluoro-phenyl)piperazin-1-yl]-3-oxo-propyl]-5-methyl-imidazolidine-2,4-dione]",IC50,rnADAMTS-5 (1-564-6H),141 nM
same,IC50,human ADAMTS-5 [1],127 nM
same,IC50,human TACE,> 20000 nM
"CC(C)C1(CCC(=O)N2CCN(c3cc(Cl)cc(Cl)c3)CC2)NC(=O)NC1=O (stereo not shown) [compound 54, 5-[3-[4-(3,5-dichlorophenyl)piperazin-1-yl]-3-oxo-propyl]-5-isopropyl-imidazolidine-2,4-dione]",IC50,rnADAMTS-5 (1-564-6H),91 nM
same,IC50,human ADAMTS-5 [1],61 nM
same,IC50,human TACE,2270 nM
same,IC50,human MMP13,> 20000 nM
"O=C1NC(=O)C(CCC(=O)N2CCN(c3cccc(Cl)c3)CC2)(c2cccnc2)N1 (stereo not shown) [compound 56, 5-[3-[4-(3-chlorophenyl)piperazin-1-yl]-3-oxo-propyl]-5-(3-pyridyl)imidazolidine-2,4-dione]",IC50,rnADAMTS-5 (1-564-6H),72 nM
same,IC50,human ADAMTS-5 [1],38 nM
same,IC50,human TACE,3190 nM
"Cc1cccc(N2CCN(C(=O)CCC3(C4CC4)NC(=O)NC3=O)CC2)c1C (stereo not shown) [compound 57, 5-cyclopropyl-5-[3-[4-(2,3-dimethylphenyl)piperazin-1-yl]-3-oxo-propyl]imidazolidine-2,4-dione]",IC50,rnADAMTS-5 (1-564-6H),117 nM
same,IC50,human ADAMTS-5 [1],93 nM
same,IC50,human TACE,> 12000 nM
"Cc1ccccc1N1CCN(C(=O)CCC2(c3cccnc3)NC(=O)NC2=O)CC1 (stereo not shown) [compound 64, 5-[3-[4-(o-tolyl)piperazin-1-yl]-3-oxo-propyl]-5-(3-pyridyl)imidazolidine-2,4-dine]",IC50,rnADAMTS-5 (1-564-6H),165 nM
same,IC50,human ADAMTS-5 [1],125 nM
same,IC50,human TACE,3140 nM
same,IC50,human MMP13,> 20000 nM
"Cc1ccc(Cl)cc1N1CCN(C(=O)CCC2(c3ccccn3)NC(=O)NC2=O)CC1 (stereo not shown) [compound 65, 5-[3-[4-(5-chloro-2-methyl-phenyl)piperazin-1-yl]-3-oxo-propyl]-5-(2-pyridyl)imidazolidine-2,4-dione]",IC50,rnADAMTS-5 (1-564-6H),65 nM
same,IC50,human ADAMTS-5 [1],50 nM
same,IC50,human TACE,56 nM
same,IC50,human MMP13,> 20000 nM
"CC1(CCC(=O)N2CCN(c3ccc(F)cc3)CC2)NC(=O)NC1=O (stereo not shown) [compound 66, 5-[3-[4-(4-fluorophenyl)piperazin-1-yl]-3-oxo-propyl]-5-methyl-imidazolidine-2,4-dione]",IC50,rnADAMTS-5 (1-564-6H),1370 nM
same,IC50,human ADAMTS-5 [1],1310 nM
same,IC50,human TACE,> 20000 nM
same,IC50,human MMP13,> 20000 nM
"O=C1NC(=O)C(CCC(=O)N2CCN(c3ccccc3)CC2)(c2cccnc2)N1 (stereo not shown) [compound 68, 5-[3-oxo-3-(4-phenylpiperazin-1-yl)propyl]-5-(3-pyridyl)imidazolidine-2,4-dione]",IC50,rnADAMTS-5 (1-564-6H),200 nM
same,IC50,human ADAMTS-5 [1],169 nM
"Cc1cccc(N2CCN(C(=O)CCC3(c4cccnc4)NC(=O)NC3=O)CC2)c1C (stereo not shown) [compound 69, 5-[3-[4-(2,3-dimethylphenyl)piperazin-1-yl]-3-oxo-propyl]-5-(3-pyridyl)imidazolidine-2,4-dione]",IC50,rnADAMTS-5 (1-564-6H),185 nM
same,IC50,human ADAMTS-5 [1],178 nM
"O=C1NC(=O)C(CCC(=O)N2CCN(c3cccc(Cl)c3)CC2)(C2CCC2)N1 (stereo not shown) [compound 70, 5-[3-[4-(3-chlorophenyl)piperazin-1-yl]-3-oxo-propyl]-5-cyclobutyl-imidazolidine-2,4-dione]",IC50,rnADAMTS-5 (1-564-6H),205 nM
same,IC50,human ADAMTS-5 [1],253 nM
same,IC50,human TACE,> 20000 nM
same,IC50,human MMP13,> 4000 nM
"Cc1ccc(Cl)cc1N1CCN(C(=O)CCC2(C3CCC3)NC(=O)NC2=O)CC1 (stereo not shown) [compound 71, 5-[3-[4-(5-chloro-2-methyl-phenyl)piperazin-1-yl]-3-oxo-propyl]-5-cyclobutyl-imidazolidine-2,4-dione]",IC50,rnADAMTS-5 (1-564-6H),198 nM
same,IC50,human ADAMTS-5 [1],200 nM
"O=C1NC(=O)C(CCC(=O)N2CCN(c3cccc(Cl)c3)CC2)(C2CCCCC2)N1 (stereo not shown) [compound 72, 5-[3-[4-(3-chlorophenyl)piperazin-1-yl]-3-oxo-propyl]-5-cyclohexyl-imidazolidine-2,4-dione]",IC50,rnADAMTS-5 (1-564-6H),282 nM
same,IC50,human ADAMTS-5 [1],264 nM
"O=C1NC(=O)C(CCC(=O)N2CCN(c3cccc(Cl)c3)CC2)(c2ccc(Cl)cc2)N1 (stereo not shown) [compound 74, 5-(4-chlorophenyl)-5-[3-[4-(3-chlorophenyl)piperazin-1-yl]-3-oxo-propyl]imidazolidine-2,4-dione]",IC50,rnADAMTS-5 (1-564-6H),106 nM
same,IC50,human ADAMTS-5 [1],89 nM
same,IC50,human MMP13,2660 nM
"Cc1ccc(C2(CCC(=O)N3CCN(c4cccc(Cl)c4)CC3)NC(=O)NC2=O)cc1 (stereo not shown) [compound 76, 5-[3-[4-(3-chlorophenyl)piperazin-1-yl]-3-oxo-propyl]-5-(p-toy)imidazolidine-2,4-dione]",IC50,rnADAMTS-5 (1-564-6H),102 nM
same,IC50,human ADAMTS-5 [1],91 nM
same,IC50,human TACE,1780 nM
same,IC50,human MMP13,2060 nM
"Cc1ccc(C2(CCC(=O)N3CCN(c4cc(Cl)ccc4C)CC3)NC(=O)NC2=O)cc1 (stereo not shown) [compound 77, 5-[3-[4-(5-chloro-2-methyl-phenyl)piperazin-1-yl]-3-oxo-propyl]-5-(p-tolyl)imidazolidine-2,4-dione]",IC50,rnADAMTS-5 (1-564-6H),169 nM
same,IC50,human ADAMTS-5 [1],107 nM
"COc1ccc(C2(CCC(=O)N3CCN(c4cccc(Cl)c4)CC3)NC(=O)NC2=O)cc1 (stereo not shown) [compound 78, 5-[3-[4-(3-chlorophenyl)piperazin-1-yl]-3-oxo-propyl]-5-(4-methoxyphenyl)imidazolidine-2,4-dione]",IC50,rnADAMTS-5 (1-564-6H),96 nM
same,IC50,human ADAMTS-5 [1],79 nM
same,IC50,human TACE,2660 nM
same,IC50,human MMP13,2100 nM
"COc1ccc(C2(CCC(=O)N3CCN(c4cc(Cl)ccc4C)CC3)NC(=O)NC2=O)cc1 (stereo not shown) [compound 79, 5-[3-[4-(5-chloro-2-methyl-phenyl)piperazin-1-yl]-3-oxo-propyl]-5-(4-methoxyphenyl)imidazolidine-2,4-dione]",IC50,rnADAMTS-5 (1-564-6H),53 nM
same,IC50,human ADAMTS-5 [1],53 nM
same,IC50,human TACE,277 nM
same,IC50,human MMP13,> 20000 nM
"Cc1ccccc1N1CCN(C(=O)CCC2(c3ccc(OCCN(C)C)cc3)NC(=O)NC2=O)CC1 (stereo not shown) [compound 81, 5-[4-(2-dimethylaminoethyloxy)phenyl]-5-[3-[4-(o-toyl)piperazin-1-yl]-3-oxo-propyl]imidazolidine-2,4-dione]",IC50,rnADAMTS-5 (1-564-6H),827 nM
same,IC50,human ADAMTS-5 [1],681 nM
"Cc1ccccc1N1CCN(C(=O)CCC2(c3ccc(CN(C)C)cc3)NC(=O)NC2=O)CC1 (stereo not shown) [compound 82, 5-[4-(dimethylaminomethyl)phenyl]-5-[3-[4-(o-toly)piperazin-1-yl]-3-oxo-propyl]imidazolidine-2,4-dione]",IC50,rnADAMTS-5 (1-564-6H),2090 nM
same,IC50,human ADAMTS-5 [1],1740 nM
"CC1(CCC(=O)N2CCN(c3cncc(F)c3)CC2)NC(=O)NC1=O (stereo not shown) [compound 84, 5-[3-[4-(5-fluoro-3-pyridyl)piperazin-1-yl]-3-oxo-propyl]-5-methyl-imidazolidine-2,4-dione]",IC50,rnADAMTS-5 (1-564-6H),637 nM
same,IC50,human ADAMTS-5 [1],815 nM
"Cc1cccc(N2CCN(C(=O)CCC3(c4ccccn4)NC(=O)NC3=O)CC2)c1C (stereo not shown) [compound 101, 5-[3-[4-(2,3-dimethylphenyl)piperazin-1-yl]-3-oxo-propyl]-5-(2-pyridyl)imidazolidine-2,4-dione]",IC50,rnADAMTS-5 (1-564-6H),165 nM
same,IC50,human ADAMTS-5 [1],154 nM
"Cc1ccc(Cl)cc1N1CCN(C(=O)CCC2(C(C)(C)C)NC(=O)NC2=O)CC1 (stereo not shown) [compound 108, 5-tert-butyl-5-[3-[4-(5-chloro-2-methyl-phenyl)piperazin-1-yl]-3-oxo-propyl]imidazolidine-2,4-dione]",IC50,rnADAMTS-5 (1-564-6H),410 nM
same,IC50,human ADAMTS-5 [1],320 nM
"Cc1ccc(Cl)cc1N1CCN(C(=O)CCC2(C3CCCC3)NC(=O)NC2=O)CC1 (stereo not shown) [compound 110, 5-[3-[4-(5-chloro-2-methyl-phenyl)piperazin-1-yl]-3-oxo-propyl]-5-cyclopentyl-imidazolidine-2,4-dione]",IC50,rnADAMTS-5 (1-564-6H),299 nM
same,IC50,human ADAMTS-5 [1],297 nM
